For two molecules, Activity results are on record in ChEMBL document CHEMBL1177829, “A novel organogermanium protected atopic dermatitis induced by oxazolone” (2010).

Activity calls are given as the source filed them. The calls are words filed in the database; no cut-off is given here.

Test [1] relates to Mus musculus. In words: Antiinflammatory activity against oxazolone-induced atopic dermatitis in nude mouse assessed as decrease in transepidermal water loss at 0.01 % administered topically bid simultaneously with oxazolone qd for 10 days following 5 days post-oxazolone challenge relative to control. Also noted: scale not given: the % may be the effect or the level left. The format is functional.

For test [2], the system named is Mus musculus. The experiment in a line: Antiinflammatory activity against oxazolone-induced atopic dermatitis in nude mouse assessed as alleviation of parkeratotic scales at 1.8 % administered topically bid simultaneously with oxazolone qd for 10 days following 5 days post-oxazolone challenge relative to control. The format is functional, organism-based.
For test [3], the system named is Mus musculus. The experiment in a line: Antiinflammatory activity against oxazolone-induced atopic dermatitis in nude mouse assessed as decrease in transepidermal water loss at 1.8 % administered topically bid simultaneously with oxazolone qd for 10 days following 5 days post-oxazolone challenge relative to control. The format is functional, organism-based. Also noted: scale not given: the % may be the effect or the level left.

The test system of test [4] is Mus musculus. In words: Antiinflammatory activity against oxazolone-induced atopic dermatitis in nude mouse assessed as reduction in IgE level at 0.3 to 1.8 % administered topically bid simultaneously with oxazolone qd for 10 days following 5 days post-oxazolone challenge relative to control. The format is functional, organism-based.
Test [5] has as its system Mus musculus. In words: Antiinflammatory activity against oxazolone-induced atopic dermatitis in nude mouse assessed as decrease in transepidermal water loss at 0.3 % administered topically bid simultaneously with oxazolone qd for 10 days following 5 days post-oxazolone challenge relative to control. The format is functional, organism-based. The arrangement: scale not given: the % may be the effect or the level left.

In test [6] the test system is Mus musculus. In words: Antiinflammatory activity against oxazolone-induced atopic dermatitis in nude mouse assessed as decrease in skin thickness at 0.01 % administered topically bid simultaneously with oxazolone qd for 10 days following 5 days post-oxazolone challenge relative to control. The format is functional, organism-based.
The test system of test [7] is Mus musculus. In words: Antiinflammatory activity against oxazolone-induced atopic dermatitis in nude mouse assessed as decrease in skin thickness at 0.3 to 1.8 % administered topically bid simultaneously with oxazolone qd for 10 days following 5 days post-oxazolone challenge relative to control. Type of test: functional, organism-based.
The test system of test [8] is Mus musculus. In words: Antiinflammatory activity against oxazolone-induced atopic dermatitis in nude mouse assessed as infiltration of lymphocytes in dermis at 1.8 % administered topically bid simultaneously with oxazolone qd for 10 days following 5 days post-oxazolone challenge relative to control. Type of test: functional, organism-based.

Consider `C[C@H]1C[C@H]2[C@@H]3CCC4=CC(=O)C=C[C@]4(C)[C@@]3(F)[C@@H](O)C[C@]2(C)[C@@]1(O)C(=O)CO` [BETAMETHASONE], for which the Activity in the test with Mus musculus [1] is given as 57%.
Consider “N-((2S)-2-(3,4-dihydroxy-5-oxo-2,5-dihydrofuran-2-yl)-2-hydroxyethyl)-3-(trimethylgermyl)propanamide”, for which the result in the test on Mus musculus [2], in the test on Mus musculus [4], with Mus musculus [6], in the test with Mus musculus [7] and with Mus musculus [8] was Active. Further, the Activity in the test on Mus musculus [3] is 39%; with Mus musculus [5], 6%.
